Data: ChEMBL document CHEMBL1142268, “Histone deacetylase inhibitors: from bench to clinic” (J Med Chem, 2008)
Calls of active or inactive are those of the source. No cut-off for these calls is given here.

How the values were obtained:
[1] = target: T1, Histone deacetylase 1 (Homo sapiens, UniProt Q13547); assay: Inhibition of HDAC1
[2] = target: T1, Histone deacetylase 1
[3] = target: Histone deacetylase 8 (Homo sapiens) (UniProt Q9BY41)
[4] = system: HCT-116; assay: Inhibition of human HCT116 cells; format: functional, cell-based
[5] = Bioavailability in […] dosed rat; format: ADME, organism-based; details: in vivo
[6] = system: A549; assay: Antitumor activity against human A549 cells xenografted in nude mouse model at 50 mg/kg, po; format: functional; details: read-out: TGI
[7] = system: PANC-1; assay: Antitumor activity against human PANC1 cells xenografted in nude mouse model at 50 mg/kg, po; format: functional; details: read-out: TGI
[8] = system: SW48; assay: Antitumor activity against human SW48 cells xenografted in nude mouse model at 30 mg/kg, po; format: functional; details: read-out: TGI
[9] = system: A549; assay: Antitumor activity against human A549 cells xenografted in nude mouse model at 40 mg/kg, ip; format: functional; details: route intraperitoneal, read-out: TGI
[10] = system: HCT-116; assay: Antitumor activity against human HCT116 cells xenografted in nude mouse model at 75 mg/kg, ip; format: functional; details: HCT-116, ip, route intraperitoneal, read-out: TGI
[11] = system: SW48; assay: Antitumor activity against human SW48 cells xenografted in nude mouse model at 75 mg/kg, ip; format: functional; details: route intraperitoneal, read-out: TGI
[12] = target: T1, Histone deacetylase 1; assay: Inhibition of HDAC1 from human HeLa cells; format: cell-based
[13] = Metabolic stability in human liver microsomes; format: ADME, Microsome
[14] = Antiproliferative activity against human MDA435 cells; format: functional, cell-based; details: MDA-MB-435
[15] = target: Histone deacetylase; assay: Inhibition of HDAC from human K562 cells; format: cell-based
[16] = system: HT-1080; assay: Inhibition of human HT1080 cells; format: functional, cell-based
[17] = system: SK-BR-3; assay: Antiproliferative activity against human SKBR3 cells; format: functional, cell-based
[18] = system: MKN-45; assay: Antiproliferative activity against human MKN45 cells; format: functional, cell-based
[19] = system: MCF7; assay: Inhibition of human MCF7 cells; format: functional, cell-based
[20] = system: A549; assay: Antitumor activity against human A549 cells xenografted in nude mouse model at 20 mg/kg, ip; format: functional; details: route intraperitoneal, read-out: TGI
[21] = system: HCT-116; assay: Antitumor activity against human HCT116 cells xenografted in nude mouse model at 20 mg/kg, ip; format: functional; details: HCT-116, ip, route intraperitoneal, read-out: TGI
[22] = system: SW48; assay: Antitumor activity against human SW48 cells xenografted in nude mouse model at 20 mg/kg, ip; format: functional; details: route intraperitoneal, read-out: TGI
[23] = system: SW-620; assay: Inhibition of human SW620 cells; format: functional, cell-based
[24] = Inhibition of human CCD1059SK cells; format: functional, cell-based
[25] = system: A549; assay: cells; details: Homo sapiens
Description: Antiproliferative activity against human A549 cells

[26] = system: NCI-H460; assay: Inhibition of human NCI-H460 cells; format: functional, cell-based
[27] = target: Histone deacetylase 3 (Homo sapiens, UniProt O15379)
Histone deacetylase 3, sequence (O15379 whole entry): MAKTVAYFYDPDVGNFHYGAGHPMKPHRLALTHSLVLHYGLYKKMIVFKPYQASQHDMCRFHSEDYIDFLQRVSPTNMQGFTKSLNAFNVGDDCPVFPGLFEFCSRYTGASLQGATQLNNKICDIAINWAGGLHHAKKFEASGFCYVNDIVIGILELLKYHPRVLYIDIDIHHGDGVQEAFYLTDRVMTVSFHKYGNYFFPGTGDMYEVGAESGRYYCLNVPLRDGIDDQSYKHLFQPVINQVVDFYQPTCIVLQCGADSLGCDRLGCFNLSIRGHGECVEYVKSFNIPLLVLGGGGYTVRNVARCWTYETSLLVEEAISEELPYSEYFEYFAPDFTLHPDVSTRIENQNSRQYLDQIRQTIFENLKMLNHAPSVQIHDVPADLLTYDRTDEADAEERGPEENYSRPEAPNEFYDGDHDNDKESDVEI

[28] = target: Histone deacetylase 2 (Homo sapiens, UniProt Q92769)
Histone deacetylase 2, sequence (Q92769 whole entry): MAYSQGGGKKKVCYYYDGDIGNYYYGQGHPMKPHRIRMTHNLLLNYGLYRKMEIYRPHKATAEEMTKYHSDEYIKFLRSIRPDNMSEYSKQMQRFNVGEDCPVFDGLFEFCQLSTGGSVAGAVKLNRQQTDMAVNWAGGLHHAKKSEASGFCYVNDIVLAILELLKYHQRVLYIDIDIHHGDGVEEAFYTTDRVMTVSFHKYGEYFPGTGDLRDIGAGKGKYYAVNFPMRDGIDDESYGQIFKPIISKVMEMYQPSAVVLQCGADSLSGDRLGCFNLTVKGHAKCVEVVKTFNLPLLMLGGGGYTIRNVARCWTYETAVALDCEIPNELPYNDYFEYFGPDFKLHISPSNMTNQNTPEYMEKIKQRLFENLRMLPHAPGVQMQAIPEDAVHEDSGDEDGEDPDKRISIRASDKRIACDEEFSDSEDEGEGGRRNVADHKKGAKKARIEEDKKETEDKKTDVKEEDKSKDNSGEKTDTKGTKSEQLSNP

[29] = system: U-937; assay: Inhibition of human U937 cells; format: functional, cell-based
[30] = system: A2780; assay: Inhibition of human A2780 cells; format: functional, cell-based
[31] = system: G-401; assay: Inhibition of human G401 cells; format: functional, cell-based
[32] = Growth inhibition of human renal epithelial cells; format: functional, cell-based; details: Epithelial cell
[33] = system: HeLa; assay: Inhibition of human HeLa cells; format: functional, cell-based
[34] = target: T2, Histone deacetylase 8 (Homo sapiens, UniProt Q9BY41)
T2 sequence (Q9BY41 whole entry): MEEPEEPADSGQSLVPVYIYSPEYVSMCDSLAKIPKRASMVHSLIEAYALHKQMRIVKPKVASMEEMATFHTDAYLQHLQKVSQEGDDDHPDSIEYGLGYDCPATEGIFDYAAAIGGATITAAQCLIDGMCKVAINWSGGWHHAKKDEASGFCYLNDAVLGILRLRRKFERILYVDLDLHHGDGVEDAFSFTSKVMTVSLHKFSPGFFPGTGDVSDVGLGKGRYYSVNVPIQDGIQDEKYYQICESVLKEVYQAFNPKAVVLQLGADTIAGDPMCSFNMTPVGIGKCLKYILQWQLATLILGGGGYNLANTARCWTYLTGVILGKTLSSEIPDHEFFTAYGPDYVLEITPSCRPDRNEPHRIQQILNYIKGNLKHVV

[35] = target: T1, Histone deacetylase 1; remark: listed apart in the source
Description: Inhibition of human HDAC1

[36] = target: T3, Protein deacetylase HDAC6 (Homo sapiens, UniProt Q9UBN7)
T3 sequence (Q9UBN7 whole entry): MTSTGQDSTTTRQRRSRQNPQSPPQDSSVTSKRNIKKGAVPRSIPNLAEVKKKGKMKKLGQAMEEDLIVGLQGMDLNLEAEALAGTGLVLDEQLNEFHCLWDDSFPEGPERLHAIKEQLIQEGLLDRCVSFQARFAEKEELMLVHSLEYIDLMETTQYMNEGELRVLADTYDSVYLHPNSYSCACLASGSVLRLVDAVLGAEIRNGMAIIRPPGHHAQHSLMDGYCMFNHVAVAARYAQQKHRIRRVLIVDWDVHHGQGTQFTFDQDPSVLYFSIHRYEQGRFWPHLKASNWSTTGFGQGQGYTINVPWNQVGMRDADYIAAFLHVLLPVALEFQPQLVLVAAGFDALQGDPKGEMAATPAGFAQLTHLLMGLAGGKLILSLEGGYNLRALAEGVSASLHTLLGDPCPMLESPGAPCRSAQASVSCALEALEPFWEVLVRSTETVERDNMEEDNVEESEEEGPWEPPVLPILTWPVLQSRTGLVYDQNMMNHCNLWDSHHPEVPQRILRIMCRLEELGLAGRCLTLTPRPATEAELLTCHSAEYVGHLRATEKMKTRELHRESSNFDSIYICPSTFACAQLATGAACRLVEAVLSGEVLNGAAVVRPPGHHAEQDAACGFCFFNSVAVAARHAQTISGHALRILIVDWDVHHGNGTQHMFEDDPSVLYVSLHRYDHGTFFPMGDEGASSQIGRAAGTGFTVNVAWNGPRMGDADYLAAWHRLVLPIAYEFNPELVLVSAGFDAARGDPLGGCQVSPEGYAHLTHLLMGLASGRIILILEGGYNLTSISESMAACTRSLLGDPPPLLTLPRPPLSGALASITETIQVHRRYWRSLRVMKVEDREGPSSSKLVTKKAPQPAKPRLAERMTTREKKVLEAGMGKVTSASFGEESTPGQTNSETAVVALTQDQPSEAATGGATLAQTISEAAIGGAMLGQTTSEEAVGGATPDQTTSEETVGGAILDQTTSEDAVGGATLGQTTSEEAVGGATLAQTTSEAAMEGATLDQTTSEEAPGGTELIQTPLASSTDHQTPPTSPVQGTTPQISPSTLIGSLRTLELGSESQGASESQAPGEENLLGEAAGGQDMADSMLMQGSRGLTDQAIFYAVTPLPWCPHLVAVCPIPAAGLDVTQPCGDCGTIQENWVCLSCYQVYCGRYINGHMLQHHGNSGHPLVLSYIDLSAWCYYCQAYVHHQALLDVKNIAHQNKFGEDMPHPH

[37] = target: Histone deacetylase 5 (Homo sapiens, UniProt Q9UQL6)
Histone deacetylase 5, sequence (Q9UQL6 whole entry): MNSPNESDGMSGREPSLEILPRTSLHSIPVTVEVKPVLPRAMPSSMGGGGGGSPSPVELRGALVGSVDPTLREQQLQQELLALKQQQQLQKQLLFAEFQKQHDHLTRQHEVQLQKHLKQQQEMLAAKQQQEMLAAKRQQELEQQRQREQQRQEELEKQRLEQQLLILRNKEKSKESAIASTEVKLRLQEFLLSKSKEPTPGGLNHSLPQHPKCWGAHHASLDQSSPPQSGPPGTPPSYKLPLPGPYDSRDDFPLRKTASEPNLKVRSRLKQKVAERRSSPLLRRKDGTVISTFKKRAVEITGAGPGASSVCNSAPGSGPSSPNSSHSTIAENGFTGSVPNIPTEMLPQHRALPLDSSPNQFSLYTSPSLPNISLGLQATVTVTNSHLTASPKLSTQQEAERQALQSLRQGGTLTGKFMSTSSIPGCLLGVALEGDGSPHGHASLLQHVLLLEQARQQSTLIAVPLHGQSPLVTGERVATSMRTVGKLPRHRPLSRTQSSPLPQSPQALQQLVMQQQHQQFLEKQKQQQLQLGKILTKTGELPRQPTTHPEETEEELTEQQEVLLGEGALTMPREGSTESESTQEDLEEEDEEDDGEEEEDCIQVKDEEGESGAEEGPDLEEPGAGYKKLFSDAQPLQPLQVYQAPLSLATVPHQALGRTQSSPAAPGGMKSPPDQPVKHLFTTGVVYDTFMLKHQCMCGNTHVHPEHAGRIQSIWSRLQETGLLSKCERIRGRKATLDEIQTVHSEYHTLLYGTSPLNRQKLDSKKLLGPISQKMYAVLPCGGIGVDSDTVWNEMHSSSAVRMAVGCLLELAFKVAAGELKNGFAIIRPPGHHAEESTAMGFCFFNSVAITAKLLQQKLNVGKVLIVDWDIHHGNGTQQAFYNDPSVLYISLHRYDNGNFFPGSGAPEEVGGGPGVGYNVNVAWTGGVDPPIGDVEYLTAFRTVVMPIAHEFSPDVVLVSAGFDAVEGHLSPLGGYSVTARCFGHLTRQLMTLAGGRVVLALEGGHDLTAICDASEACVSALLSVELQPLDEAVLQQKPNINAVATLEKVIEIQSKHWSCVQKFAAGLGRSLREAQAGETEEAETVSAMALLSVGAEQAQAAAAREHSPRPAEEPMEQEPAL

[38] = target: Histone deacetylase 4 (Homo sapiens, UniProt P56524)
Histone deacetylase 4, sequence (P56524 whole entry): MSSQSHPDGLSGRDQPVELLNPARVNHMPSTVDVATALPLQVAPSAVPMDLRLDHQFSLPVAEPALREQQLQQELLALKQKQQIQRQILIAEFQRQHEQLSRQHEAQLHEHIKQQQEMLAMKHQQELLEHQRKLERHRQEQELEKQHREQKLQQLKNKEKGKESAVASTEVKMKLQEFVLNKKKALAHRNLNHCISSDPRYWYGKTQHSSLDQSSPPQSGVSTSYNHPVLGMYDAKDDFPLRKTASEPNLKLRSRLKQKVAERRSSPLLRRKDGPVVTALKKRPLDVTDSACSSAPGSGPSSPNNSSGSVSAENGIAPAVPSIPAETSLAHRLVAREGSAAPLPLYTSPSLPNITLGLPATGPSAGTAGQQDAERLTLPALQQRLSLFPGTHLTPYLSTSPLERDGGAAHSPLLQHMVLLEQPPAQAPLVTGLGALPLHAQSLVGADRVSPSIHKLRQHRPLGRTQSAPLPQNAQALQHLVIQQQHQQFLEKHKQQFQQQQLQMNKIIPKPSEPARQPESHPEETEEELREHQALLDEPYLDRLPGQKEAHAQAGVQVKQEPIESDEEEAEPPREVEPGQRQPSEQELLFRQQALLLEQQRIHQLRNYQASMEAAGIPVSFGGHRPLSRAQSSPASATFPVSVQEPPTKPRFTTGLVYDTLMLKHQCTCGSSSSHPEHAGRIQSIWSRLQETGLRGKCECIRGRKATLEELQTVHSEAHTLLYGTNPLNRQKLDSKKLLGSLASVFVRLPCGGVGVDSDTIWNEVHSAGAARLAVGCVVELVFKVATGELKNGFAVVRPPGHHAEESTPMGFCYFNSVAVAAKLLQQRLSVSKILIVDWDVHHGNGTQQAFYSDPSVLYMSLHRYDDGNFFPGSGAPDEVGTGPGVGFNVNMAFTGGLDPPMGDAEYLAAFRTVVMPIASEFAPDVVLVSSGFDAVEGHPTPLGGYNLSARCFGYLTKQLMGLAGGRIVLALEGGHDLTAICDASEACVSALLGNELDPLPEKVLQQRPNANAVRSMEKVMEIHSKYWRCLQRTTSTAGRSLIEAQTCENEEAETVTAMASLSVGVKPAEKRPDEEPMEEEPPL

[39] = target: Histone deacetylase 7 (Homo sapiens) (UniProt Q8WUI4); assay: Inhibition of HDAC7
Histone deacetylase 7 (Homo sapiens), sequence (Q8WUI4 whole entry): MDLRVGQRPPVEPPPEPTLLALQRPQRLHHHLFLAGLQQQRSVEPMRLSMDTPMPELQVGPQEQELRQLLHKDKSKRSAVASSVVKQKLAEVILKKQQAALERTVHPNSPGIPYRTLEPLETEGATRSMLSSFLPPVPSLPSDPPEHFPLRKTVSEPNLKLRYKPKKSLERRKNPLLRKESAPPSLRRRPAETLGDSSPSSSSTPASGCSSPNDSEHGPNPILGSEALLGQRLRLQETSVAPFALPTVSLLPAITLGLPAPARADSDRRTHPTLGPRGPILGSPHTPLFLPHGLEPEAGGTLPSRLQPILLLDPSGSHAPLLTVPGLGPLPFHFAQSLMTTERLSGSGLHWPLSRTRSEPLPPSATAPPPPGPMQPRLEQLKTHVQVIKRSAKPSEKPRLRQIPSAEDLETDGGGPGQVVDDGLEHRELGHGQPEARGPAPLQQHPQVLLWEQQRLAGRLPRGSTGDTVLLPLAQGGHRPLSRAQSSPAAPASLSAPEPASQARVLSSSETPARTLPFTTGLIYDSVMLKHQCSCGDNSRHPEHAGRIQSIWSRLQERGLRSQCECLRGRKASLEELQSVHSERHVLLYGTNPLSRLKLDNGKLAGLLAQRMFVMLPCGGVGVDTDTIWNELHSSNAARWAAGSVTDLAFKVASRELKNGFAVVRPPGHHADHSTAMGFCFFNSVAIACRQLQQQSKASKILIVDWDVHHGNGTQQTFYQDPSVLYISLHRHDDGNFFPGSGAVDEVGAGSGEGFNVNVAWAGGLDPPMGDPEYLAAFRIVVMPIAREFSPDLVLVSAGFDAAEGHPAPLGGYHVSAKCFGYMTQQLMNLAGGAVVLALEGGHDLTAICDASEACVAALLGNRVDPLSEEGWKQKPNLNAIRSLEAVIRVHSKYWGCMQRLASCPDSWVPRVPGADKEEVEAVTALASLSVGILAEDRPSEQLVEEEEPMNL

[40] = system: HL-60; assay: Inhibition of human HL60 cells; format: functional
[41] = system: HCT-116; assay: Antitumor activity against human HCT116 cells xenografted in ip dosed nude mouse assessed as tumor volume inhibition; format: functional
[42] = system: MDA-MB-231; assay: Inhibition of human MDA-MB-231 cells; format: functional, cell-based
[43] = system: SNB-78; assay: Inhibition of human SNB78 cells; format: functional, cell-based
[44] = system: NCI-H226; assay: Inhibition of human NCI-H226 cells; format: functional, cell-based
[45] = system: LOX IMVI; assay: Inhibition of human LOX-IMVI cells; format: functional, cell-based
[46] = system: SK-OV-3; assay: Inhibition of human SKOV3 cells; format: functional, cell-based
[47] = Inhibition of human RFX631L cells; format: functional
[48] = system: St-4; assay: Inhibition of human St4 cells; format: functional, cell-based
[49] = system: DU-145; assay: Inhibition of human DU145 cells; format: functional, cell-based

T1 sequence (Q13547 whole entry): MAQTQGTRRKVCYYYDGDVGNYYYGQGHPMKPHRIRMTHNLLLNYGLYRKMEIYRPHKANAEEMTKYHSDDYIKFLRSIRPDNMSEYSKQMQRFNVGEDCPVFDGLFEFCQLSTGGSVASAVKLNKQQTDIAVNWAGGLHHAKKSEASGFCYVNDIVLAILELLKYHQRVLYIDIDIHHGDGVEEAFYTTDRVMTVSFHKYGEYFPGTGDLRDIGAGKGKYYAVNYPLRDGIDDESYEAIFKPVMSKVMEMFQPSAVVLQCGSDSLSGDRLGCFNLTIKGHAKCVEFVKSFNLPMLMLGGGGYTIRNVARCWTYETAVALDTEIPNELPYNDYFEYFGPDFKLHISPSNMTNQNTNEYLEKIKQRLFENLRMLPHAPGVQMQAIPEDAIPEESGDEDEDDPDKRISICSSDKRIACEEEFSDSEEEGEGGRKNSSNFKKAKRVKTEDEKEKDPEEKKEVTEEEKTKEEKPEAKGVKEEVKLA

S=c1[nH]cc(-c2ccncc2)[nH]1
Activity [1]: inactive

O=C(CCc1ccccc1)Nc1ccc(C(=O)Nc2ccc(Oc3ccccc3)cc2)cc1
IC50 [2]: 1.5 µM | Activity [3]: inactive

COc1ccc(NCc2ccc(C(=O)Nc3ccccc3N)cc2)cc1OC
IC50 [4]: 0.4 µM | bioavailability [5]: 20% | inhibition in vivo at 50 mg/kg [6]: 67% | inhibition in vivo at 50 mg/kg [7]: 84% | inhibition in vivo at 30 mg/kg [8]: 78% | inhibition in vivo at 40 mg/kg [9]: 73% | inhibition in vivo at 75 mg/kg [10]: 86% | inhibition in vivo at 75 mg/kg [11]: 100%

COc1ccc2[nH]c(C)c(CC(=O)N[C@@H](CCCCCC(C)=O)C(=O)NCCc3c(-c4ccccc4)[nH]c4ccccc34)c2c1
IC50 [12]: 0.73 µM | microsomal CLint [13]: > 300 µL/min/mg

CNC(=O)C(=O)CCCCCCC(=O)Nc1cccc(-c2ccccc2)c1
IC50 [14]: 14 µM | IC50 [15]: 0.0037 µM | IC50 [16]: 6.9 µM

Nc1ccccc1NC(=O)c1ccc(CNC(=O)OCc2cccnc2)cc1 [ENTINOSTAT]
IC50 [17]: 0.87 µM | IC50 [18]: 4.16 µM | IC50 [19]: 4.3 µM | IC50 [4]: 0.5 µM | inhibition in vivo at 20 mg/kg [20]: 46% | inhibition in vivo at 20 mg/kg [21]: 56% | inhibition in vivo at 20 mg/kg [22]: 68% | IC50 [23]: 3.2 µM | IC50 [24]: 65 µM | IC50 [25]: 3.58 µM

O=C(CCCCCCS)Nc1ccccc1
EC50 [26]: > 50 µM

CC(=O)CCCCC[C@H](NC1CCCCN1C)C(=O)Nc1nc(-c2ccccc2)cs1 (some centres not stated)
IC50 [27]: 0.014 µM | IC50 [19]: 0.23 µM | IC50 [28]: 0.17 µM | IC50 [4]: 0.67 µM | IC50 [12]: 0.43 µM | microsomal CLint [13]: 54 µL/min/mg | IC50 [29]: 0.45 µM | IC50 [30]: 1.7 µM | IC50 [31]: 0.25 µM | IC50 [32]: > 20 µM | IC50 [33]: 0.43 µM | IC50 [2]: 0.055 µM | IC50 [34]: 3 µM | IC50 [35]: 0.055 µM | IC50 [36]: 0.013 µM | IC50 [37]: 1.9 µM | AC50 [38]: Not Active | IC50 [25]: 2 µM | Activity [39]: inactive

Nc1ccc(F)cc1NC(=O)c1ccc(CNC(=O)/C=C/c2ccccc2)cc1
GI50 [33]: 40 µM | GI50 [40]: 0.4 µM

COc1ccc(NCc2ccc(C(=O)Nc3cc(-c4cccs4)ccc3N)cc2)cc1OC
Inhibition [41]: 72%

CC(C)C(=O)SCCCCCCC(=O)Nc1nc(-c2ccccc2)cs1
EC50 [26]: 2 µM | EC50 [42]: 2.3 µM | EC50 [43]: 9.1 µM | EC50 [4]: 3 µM | EC50 [44]: 2.6 µM | EC50 [45]: 1.1 µM | EC50 [46]: 4.5 µM | EC50 [47]: 2.4 µM | EC50 [48]: 5 µM | EC50 [49]: 4.5 µM

CNC(=O)C(=O)CCCCCCC(=O)Nc1nc(-c2cccnc2)cs1
IC50 [14]: 2 µM | IC50 [15]: 0.0043 µM | IC50 [16]: 0.67 µM
